Results as given in patent US20060183144A1, “Methods and compositions for assessing nucleic acids” (Medical College of Ohio, priority 2005, published 2006).

Columns and labels:
[1] = system: cytochrome p450 IA1 (CYPIAI); experiment: Northern analysis of CYPIAI gene expression; type: cell-based, human; conditions: BEP2D cells incubated with β-napthoflavone (10 μM); control 0.1% DMSO; 32P-labeled CYPIAI cDNA probe
Method: RNA from BEP2D cells incubated for varying times with β-napthoflavone (10 μM) was either electrophoresed on a 1% LE formaldehyde denaturing gel for Northern analysis or MC RT-PCR amplified, as described above. For Northern analysis, following transfer of the RNA to GeneScreen, the filters were hybridized with ^32P-labeled CYPLAI cDNA.

[2] = system: cytochrome p450 (CYP) IAI gene; experiment: MC RT-PCR with Celi competitive templates, induction of CYPIAI gene expression; type: cell-based, human; conditions: BEP2D cells incubated with β-napthoflavone (10 μM); control 0.1% DMSO; about the same cDNA loading by GAPDH reference gene
Method: In a second set of experiments, multiplex competitive reverse transcriptase polymerase chain reaction (MC RT-PCR) with competitive templates were prepared by the Celi method to evaluate the cytochrome p450 (CYP) IAI gene in β-napthoflavone-exposed BEP2D cells. The induction of CYPIAI gene expression was evaluated using both MC RT-PCR with Celi competitive templates, and Northern analysis. Competitive templates were prepared for both the CYPIAI and GAPDH genes. The primers used to prepare the competitive template for GAPDH were: […]
The PCR amplification conditions were the same as described for experiments using the competitive templates prepared for GAPDH and GSHPx by the Higuchi method except the annealing temperature was 55 degrees centigrade and the amplification was carried out for 38 cycles.
Because the native and competitive templates separate without prior restriction endonuclease digestion, samples were taken directly from the PCR reaction tube and applied to ethidium bromide stained 3% Nusieve, 1% LE agarose gels. It was then possible to quantify the products by taking a negative photograph of the gel using Polaroid 665 positive/negative instant film, subjecting the negative photograph to densitometry. […]

gene expression of the CYPIAI gene [1]: increase | band representing the native CYPIAI gene, exposed cells compared to control cells [2]: much more strongly represented
SMILES: O=c1cc(-c2ccccc2)oc2ccc3ccccc3c12 [β-napthoflavone]
